Laboratory results reported in patent publication US9079895B2, “Morpholino compounds, uses and methods” (University of Dundee, priority 2012, dated 2015).

What was measured:
5HT4 receptor = 5HT4 receptor (Homo sapiens (Human), UniProt Q13639); experiment: Secondary radioligand binding assay, 5HT4; set-up: key: “—” indicates that a binding interaction was not detected; conditions: average of at least two experiments
Protocol: 1. Secondary Radioligand Binding Assays The detailed experimental protocols for the radioligand and functional receptor assays are available on the NIMH PDSP website at http://pdsp.med.unc.edu/UNC-CH %20Protocol %20Book.pdf. Assay Buffer: Standard Binding Buffer (50 mM Tris-HCl, 10 mM MgCl2, 1 mM EDTA, pH 7.4) Membrane Fraction Source: Transiently or stably transfected cell lines (e.g., HEK293, COS, CHO, NIH3T3) Protocol adapted from Roth et al. (1986), J. Pharmacol. Exp. Ther., 238(2): 480-485; and Roth et al. (1994), J. Pharmacol. Exp. Ther., 268(3): 1403-1410. […] A similar stock of a reference compound (positive control) is also prepared. […] Radioligand is diluted to five times the assay concentration (see Table 18) in Standard Binding Buffer. Typically, the assay concentration of radioligand is a value between one half the KD and the KD of a particular radioligand at its target. 50 μl aliquots of radioligand are dispensed into the wells of a 96-well plate containing 100 μl of Standard Binding Buffer. Then, duplicate 50 μl aliquots of the test and reference compound dilutions are added. Finally, crude membrane fractions of cells expressing recombinant target (prepared from 10 cm plates by harvesting PBS-rinsed monolayers, resuspending and lysing in chilled, hypotonic 50 mM Tris-HCl, pH 7.4, centrifuging at 20,000×g, decanting the supernatant and storing at −80° C.; typically, one 10 cm plate provides sufficient material for 24 wells), are resuspended in 3 ml of chilled Standard Binding Buffer and homogenized by several passages through a 26 gauge needle, then 50 μl are dispensed into each well. […] Four rapid 500 μl washes are performed with chilled Standard Binding Buffer to reduce non-specific binding. Filters are placed in 6 ml scintillation tubes and allowed to dry overnight. The next day, 4 ml of EcoScint scintillation cocktail (National Diagnostics) are added to each tube. The tubes are capped, labeled, and counted by liquid scintillation counting. For higher throughput assays, bound radioactivity is harvested onto 0.3% polyethyleneimine-treated, 96-well filter mats using a 96-well Filtermate harvester. The filter mats are dried, then scintillant is melted onto the filters and the radioactivity retained on the filters is counted in a Microbeta scintillation counter. Raw data (dpm) representing total radioligand binding (i.e. specific+non-specific binding) are plotted as a function of the logarithm of the molar concentration of the competitor (i.e. test or reference compound).

5HT2a receptor = 5HT2a receptor (Homo sapiens (Human), UniProt P28223); experiment: Secondary radioligand binding assay, 5HT2a; conditions: average of at least two experiments
[1] = molecular target: Alpha1D adrenergic receptor (Homo sapiens (Human), UniProt P25100); experiment: Secondary radioligand binding assay, Alpha1D; conditions: average of at least two experiments
Protocol: (§1) 1. Secondary Radioligand Binding Assays
(§2) The detailed experimental protocols for the radioligand and functional receptor assays are available on the NIMH PDSP website at http://pdsp.med.unc.edu/UNC-CH %20Protocol %20Book.pdf.
(§3) Raw data (dpm) representing total radioligand binding (i.e. specific+non-specific binding) are plotted as a function of the logarithm of the molar concentration of the competitor (i.e. test or reference compound).
(§4) The method is carried out in the manner described for the serotonin receptor assay above, except where described below. Eleven dilutions (5× assay concentration) of the test and reference (see Table 20) compounds are prepared in the appropriate buffer by serial dilution, as previously described. Radioligand is diluted to five times the assay concentration (see Table 21) in the appropriate buffer.
The 250 μl reactions are incubated at room temperature and shielded from light (to prevent photolysis of light-sensitive ligands) for 1 hour (for α1 receptors, 40 min for α2 receptors, and 1.5 hours for β receptors), then harvested by rapid filtration onto Whatman GF/B glass fiber filters pre-soaked with 0.3% polyethyleneimine using a 96-well Brandel harverster. Four rapid 500-μl washes are performed with chilled distilled water (for α1 and β receptors) or 0.1% polyethyleneimine (for α2 receptors) to reduce non-specific binding. Filters are placed in 6 ml scintillation tubes and allowed to dry overnight and the samples are treated to obtain data as described above.

dopamine D5 receptor = dopamine D5 receptor (Homo sapiens (Human), UniProt P21918); experiment: Secondary radioligand binding assay, D5; set-up: key to Ki D5: “—” indicates that a binding interaction was not detected; conditions: average of at least two experiments
Protocol: as §1, §2
(§5) Radioligand is diluted to five times the assay concentration (see Table 18) in Standard Binding Buffer. Typically, the assay concentration of radioligand is a value between one half the KD and the KD of a particular radioligand at its target. 50 μl aliquots of radioligand are dispensed into the wells of a 96-well plate containing 100 μl of Standard Binding Buffer. Then, duplicate 50 μl aliquots of the test and reference compound dilutions are added.
(§6) The 250 μl reactions are incubated at room temperature and shielded from light (to prevent photolysis of light-sensitive ligands) for 1.5 hours, then harvested by rapid filtration onto Whatman GF/B glass fiber filters pre-soaked with 0.3% polyethyleneimine using a 96-well Brandel harverster. Four rapid 500 μl washes are performed with chilled Standard Binding Buffer to reduce non-specific binding. Filters are placed in 6 ml scintillation tubes and allowed to dry overnight. The next day, 4 ml of EcoScint scintillation cocktail (National Diagnostics) are added to each tube. The tubes are capped, labeled, and counted by liquid scintillation counting. […] The filter mats are dried, then scintillant is melted onto the filters and the radioactivity retained on the filters is counted in a Microbeta scintillation counter.
as §3
(§7) B. Dopamine Receptors: D1, D2, D3, D4, D5 Assay Buffers: Dopamine Binding Buffer (50 mM NaCl, 50 mM HEPES-HCl, 5 mM MgCl2, 0.5 mM EDTA, pH 7.4) Membrane Fraction Source: Transiently or stably transfected cell lines (e.g. HEK293, COS, CHO, NIH3T3)
as §4, with “above.” for “above, except where described below.”, “19)” for “20)”, “Dopamine Binding Buffer” for “the appropriate buffer”, “20)” for “21)”, “Dopamine Binding Buffer.” for “the appropriate buffer.”

5HT1a receptor = 5HT1a receptor (Homo sapiens (Human), UniProt P08908); experiment: Secondary radioligand binding assay, 5HT1a; conditions: average of at least two experiments
dopamine D4 receptor [2] = molecular target: T1, dopamine D4 receptor (Homo sapiens (Human), UniProt P21917); experiment: Secondary radioligand binding assay, D4; conditions: receptor binding; average of at least two experiments; read-out: Ki D4
Protocol: as §1, §2, §5, §6, §3, §7
as §4, with “above.” for “above, except where described below.”, “19)” for “20)”, “Dopamine Binding Buffer” for “the appropriate buffer”, “20)” for “21)”, “Dopamine Binding Buffer.” for “the appropriate buffer.”

5HT1b receptor = 5HT1b receptor (Homo sapiens (Human), UniProt P28222); experiment: Secondary radioligand binding assay, 5HT1b; conditions: average of at least two experiments
Protocol: The 250 μl reactions are incubated at room temperature and shielded from light (to prevent photolysis of light-sensitive ligands) for 1.5 hours, then harvested by rapid filtration onto Whatman GF/B glass fiber filters pre-soaked with 0.3% polyethyleneimine using a 96-well Brandel harverster. Four rapid 500 μl washes are performed with chilled Standard Binding Buffer to reduce non-specific binding. Filters are placed in 6 ml scintillation tubes and allowed to dry overnight. […] The tubes are capped, labeled, and counted by liquid scintillation counting. […] The filter mats are dried, then scintillant is melted onto the filters and the radioactivity retained on the filters is counted in a Microbeta scintillation counter. […]

5HT2c receptor = 5HT2c receptor (Homo sapiens (Human), UniProt P28335); experiment: Secondary radioligand binding assay, 5HT2c; conditions: average of at least two experiments
dopamine D4 receptor [3] = molecular target: T1, dopamine D4 receptor; experiment: Functional assay against the dopamine D4 receptor; type: cell-based; conditions: data not shown
Source text: as §2

dopamine D2 receptor = dopamine D2 receptor (Homo sapiens (Human), UniProt P14416); experiment: Functional assay against the dopamine D2 receptor; type: cell-based; conditions: data not shown
Source text: as §2

Chain of Alpha1D adrenergic receptor (P25100 whole entry): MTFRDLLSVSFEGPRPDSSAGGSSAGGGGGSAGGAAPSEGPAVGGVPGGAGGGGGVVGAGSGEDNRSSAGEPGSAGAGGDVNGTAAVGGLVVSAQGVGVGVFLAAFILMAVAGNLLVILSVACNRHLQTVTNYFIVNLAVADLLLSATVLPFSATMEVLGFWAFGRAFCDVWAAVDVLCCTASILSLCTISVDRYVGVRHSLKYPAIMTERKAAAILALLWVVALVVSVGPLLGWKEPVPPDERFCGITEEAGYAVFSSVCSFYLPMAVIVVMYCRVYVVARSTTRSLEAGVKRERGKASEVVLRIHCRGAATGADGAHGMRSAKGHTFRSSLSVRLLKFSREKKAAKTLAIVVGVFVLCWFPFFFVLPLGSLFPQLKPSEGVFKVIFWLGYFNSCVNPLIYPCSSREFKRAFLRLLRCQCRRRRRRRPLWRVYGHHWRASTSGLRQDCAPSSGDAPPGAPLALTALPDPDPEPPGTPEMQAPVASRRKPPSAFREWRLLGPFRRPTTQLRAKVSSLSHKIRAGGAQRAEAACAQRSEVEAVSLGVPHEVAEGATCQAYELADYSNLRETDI
Chain of 5HT2a receptor (P28223 whole entry): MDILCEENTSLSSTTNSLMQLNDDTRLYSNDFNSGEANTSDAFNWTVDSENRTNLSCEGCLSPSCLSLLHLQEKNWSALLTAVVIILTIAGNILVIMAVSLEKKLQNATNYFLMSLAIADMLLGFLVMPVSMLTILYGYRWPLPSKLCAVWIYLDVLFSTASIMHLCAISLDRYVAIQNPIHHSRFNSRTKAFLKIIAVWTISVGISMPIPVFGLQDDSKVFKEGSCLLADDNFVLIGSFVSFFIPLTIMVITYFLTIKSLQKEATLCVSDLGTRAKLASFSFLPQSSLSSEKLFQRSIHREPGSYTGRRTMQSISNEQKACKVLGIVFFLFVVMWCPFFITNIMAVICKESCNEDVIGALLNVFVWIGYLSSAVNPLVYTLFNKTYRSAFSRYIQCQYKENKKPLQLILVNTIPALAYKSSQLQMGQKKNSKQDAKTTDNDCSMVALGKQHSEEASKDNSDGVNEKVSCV
Chain of 5HT4 receptor (Q13639 whole entry): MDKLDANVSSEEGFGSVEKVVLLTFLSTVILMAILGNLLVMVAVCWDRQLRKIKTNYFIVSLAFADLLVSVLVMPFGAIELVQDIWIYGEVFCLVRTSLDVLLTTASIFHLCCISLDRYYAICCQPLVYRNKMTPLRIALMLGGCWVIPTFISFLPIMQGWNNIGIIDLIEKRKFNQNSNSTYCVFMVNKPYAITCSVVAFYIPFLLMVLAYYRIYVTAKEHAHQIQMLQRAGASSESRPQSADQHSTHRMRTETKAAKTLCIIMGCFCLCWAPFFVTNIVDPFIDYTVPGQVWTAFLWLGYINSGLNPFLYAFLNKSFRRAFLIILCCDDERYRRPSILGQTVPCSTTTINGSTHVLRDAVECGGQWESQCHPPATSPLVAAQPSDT
Chain of dopamine D5 receptor (P21918 whole entry): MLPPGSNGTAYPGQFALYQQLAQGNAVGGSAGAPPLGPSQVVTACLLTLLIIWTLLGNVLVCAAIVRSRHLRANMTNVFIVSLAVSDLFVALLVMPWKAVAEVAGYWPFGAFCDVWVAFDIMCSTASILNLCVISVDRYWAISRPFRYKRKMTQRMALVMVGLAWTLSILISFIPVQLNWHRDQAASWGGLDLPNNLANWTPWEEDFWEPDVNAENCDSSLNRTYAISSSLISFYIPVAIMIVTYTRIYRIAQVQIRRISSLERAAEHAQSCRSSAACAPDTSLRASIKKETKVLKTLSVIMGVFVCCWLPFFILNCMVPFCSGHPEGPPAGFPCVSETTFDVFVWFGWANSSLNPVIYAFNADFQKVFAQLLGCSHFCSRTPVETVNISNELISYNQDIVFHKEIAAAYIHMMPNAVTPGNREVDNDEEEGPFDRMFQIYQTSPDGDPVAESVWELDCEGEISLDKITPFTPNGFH
T1 sequence (P21917 whole entry, species assumed): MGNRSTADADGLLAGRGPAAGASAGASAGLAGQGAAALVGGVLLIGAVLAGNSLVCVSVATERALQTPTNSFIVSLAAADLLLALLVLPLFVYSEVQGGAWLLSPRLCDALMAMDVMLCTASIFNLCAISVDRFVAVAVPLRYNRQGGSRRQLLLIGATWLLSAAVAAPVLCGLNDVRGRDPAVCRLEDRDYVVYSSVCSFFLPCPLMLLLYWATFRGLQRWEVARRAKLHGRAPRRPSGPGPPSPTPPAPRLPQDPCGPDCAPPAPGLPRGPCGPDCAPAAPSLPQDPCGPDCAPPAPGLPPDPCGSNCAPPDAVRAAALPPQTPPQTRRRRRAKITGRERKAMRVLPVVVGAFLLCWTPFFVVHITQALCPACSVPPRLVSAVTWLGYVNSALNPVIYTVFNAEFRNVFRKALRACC
Chain of 5HT1a receptor (P08908 whole entry): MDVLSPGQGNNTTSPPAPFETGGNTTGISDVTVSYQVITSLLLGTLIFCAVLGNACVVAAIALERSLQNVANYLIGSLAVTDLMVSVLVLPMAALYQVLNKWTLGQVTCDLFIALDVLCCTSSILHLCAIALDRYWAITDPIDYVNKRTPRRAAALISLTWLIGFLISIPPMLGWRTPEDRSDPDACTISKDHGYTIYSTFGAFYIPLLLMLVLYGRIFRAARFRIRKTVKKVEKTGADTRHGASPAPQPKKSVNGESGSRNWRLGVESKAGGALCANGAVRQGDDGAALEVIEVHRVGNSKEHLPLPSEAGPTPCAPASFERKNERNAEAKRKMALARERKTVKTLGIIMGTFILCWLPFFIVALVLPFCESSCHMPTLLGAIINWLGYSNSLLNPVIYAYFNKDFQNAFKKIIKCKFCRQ
Chain of dopamine D2 receptor (P14416 whole entry, species assumed): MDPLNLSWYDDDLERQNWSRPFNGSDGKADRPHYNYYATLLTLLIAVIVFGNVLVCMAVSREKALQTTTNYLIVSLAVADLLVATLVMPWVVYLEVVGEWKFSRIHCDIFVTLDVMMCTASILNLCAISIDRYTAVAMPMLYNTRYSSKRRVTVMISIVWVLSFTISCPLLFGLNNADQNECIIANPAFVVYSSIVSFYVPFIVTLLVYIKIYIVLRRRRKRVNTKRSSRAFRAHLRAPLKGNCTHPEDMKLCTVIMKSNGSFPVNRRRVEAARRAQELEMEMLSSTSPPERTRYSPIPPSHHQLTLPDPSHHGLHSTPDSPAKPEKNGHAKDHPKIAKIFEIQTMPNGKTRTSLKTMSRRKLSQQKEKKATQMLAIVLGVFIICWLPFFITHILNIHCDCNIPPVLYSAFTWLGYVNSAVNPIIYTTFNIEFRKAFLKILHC
Chain of 5HT1b receptor (P28222 whole entry): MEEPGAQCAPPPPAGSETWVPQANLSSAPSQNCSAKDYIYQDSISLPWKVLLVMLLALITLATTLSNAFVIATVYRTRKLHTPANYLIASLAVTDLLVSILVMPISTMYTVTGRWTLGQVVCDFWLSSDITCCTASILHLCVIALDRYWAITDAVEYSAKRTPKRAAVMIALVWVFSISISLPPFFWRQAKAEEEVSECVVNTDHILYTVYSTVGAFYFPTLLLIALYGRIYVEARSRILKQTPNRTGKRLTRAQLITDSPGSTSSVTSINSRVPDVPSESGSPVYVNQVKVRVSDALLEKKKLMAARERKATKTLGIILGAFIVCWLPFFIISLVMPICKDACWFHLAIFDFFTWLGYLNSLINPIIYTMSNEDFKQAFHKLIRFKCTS
Chain of 5HT2c receptor (P28335 33-458): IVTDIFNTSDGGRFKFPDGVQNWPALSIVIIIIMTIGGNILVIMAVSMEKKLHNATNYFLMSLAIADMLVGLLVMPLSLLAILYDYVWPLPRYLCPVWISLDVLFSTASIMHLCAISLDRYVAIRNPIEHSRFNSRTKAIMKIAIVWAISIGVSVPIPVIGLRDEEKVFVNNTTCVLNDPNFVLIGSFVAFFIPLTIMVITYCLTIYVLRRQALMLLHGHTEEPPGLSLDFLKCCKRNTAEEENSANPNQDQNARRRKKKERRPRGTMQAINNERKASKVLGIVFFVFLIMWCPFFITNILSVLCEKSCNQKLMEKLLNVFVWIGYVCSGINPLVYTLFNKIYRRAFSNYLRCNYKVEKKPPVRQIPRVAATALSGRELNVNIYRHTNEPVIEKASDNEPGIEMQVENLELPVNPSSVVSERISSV

Row | SMILES | Ki 5HT4 (5HT4 receptor) | Ki (5HT2a receptor) [nM] | Ki [1] [nM] | Ki D5 (dopamine D5 receptor) | Ki (5HT1a receptor) [nM] | Ki (dopamine D4 receptor [2]) [nM] | Ki (5HT1b receptor) [nM] | Ki (5HT2c receptor) [nM] | function at the dopamine D4 receptor (dopamine D4 receptor [3]) | function at the dopamine D2 receptor (dopamine D2 receptor) | Ki (dopamine D5 receptor) [nM]
1 | CC1Cc2ccccc2N1C(=O)CN1CCO[C@@H](COc2cccc(Cl)c2)C1 (stereo partly shown) [Compound 65] | — | 1810 | > 10000 | — | > 10000 |  |  |  |  |  | 
2 | Cc1ccccc1OC[C@H]1CN(CC(=O)N2c3ccccc3CC2C)CCO1 (stereo partly shown) [Compound 66] | — |  | > 10000 | — | 7540 |  |  |  |  |  | 
3 | O=C(CN1CCO[C@H](COc2cccc(Cl)c2)C1)N1CCc2ccccc21 [Compound 22s, (S)-2-(2-((3-Chlorophenoxy)methyl)morpholino)-1-(indolin-1-yl)ethanone] | — | 2720 |  | — | 1390 | 2860 | 7770 |  |  |  | 
4 | Clc1cccc(OC[C@@H]2CN(CCN3CCc4ccccc43)CCO2)c1 [Compound 23s, (S)-2-((3-chlorophenoxy)methyl)-4-(2-(indolin-1-yl)ethyl)morpholine] | — | 1280 | 4180 | — |  |  |  | 3390 |  |  | 
5 | COc1cccc(OC[C@@H]2CN(CC(=O)N3CCc4ccccc43)CCO2)c1 [Compound 24s, (S)-1-(Indolin-1-yl)-2-(2-((3-methoxyphenoxy)methyl)morpholino)ethanone] | — | 1940 |  | — | 371 |  | 4830 |  |  |  | 
6 | O=C(CN1CCO[C@@H](COc2cccc(Cl)c2)C1)N1CCc2ccccc21 [Compound 22r, (R)-2-(2-((3-chlorophenoxy)methyl)morpholino)-1-(indolin-1-yl)ethanone] | — | 2070 |  | — | 384 | 536 |  |  | inverse agonists | inverse agonists | 
7 | CC1Cc2ccccc2N1C(=O)CN1CCO[C@H](COc2cccc(Cl)c2)C1 (stereo partly shown) [Compound 64] | — | 4540 | > 10000 | — | 644 | 2390 |  |  |  |  | 
8 | Cc1ncccc1OC[C@@H]1CN(CC(=O)N2c3ccccc3C[C@H]2C)CCO1 [Compound 61] | — |  | > 10000 | — | 540 |  |  |  |  |  | 
9 | c1cncc(OC[C@@H]2CN(CCN3CCc4ccccc43)CCO2)c1 [Compound 21s, (S)-4-(2-(Indolin-1-yl)ethyl)-2-((pyridin-3-yloxy)methyl)morpholine] | — | 3540 |  |  | 10000 | 182 |  |  | inverse agonists | inverse agonists | > 10000
